SMILES strings stand for the structures. Some results are limits rather than exact numbers.

This assay deals with T1, PDE4D3 (Homo sapiens, UniProt Q08499).
T1 construct: GST
T1 sequence (Q08499 1-673 isoform Q08499-2): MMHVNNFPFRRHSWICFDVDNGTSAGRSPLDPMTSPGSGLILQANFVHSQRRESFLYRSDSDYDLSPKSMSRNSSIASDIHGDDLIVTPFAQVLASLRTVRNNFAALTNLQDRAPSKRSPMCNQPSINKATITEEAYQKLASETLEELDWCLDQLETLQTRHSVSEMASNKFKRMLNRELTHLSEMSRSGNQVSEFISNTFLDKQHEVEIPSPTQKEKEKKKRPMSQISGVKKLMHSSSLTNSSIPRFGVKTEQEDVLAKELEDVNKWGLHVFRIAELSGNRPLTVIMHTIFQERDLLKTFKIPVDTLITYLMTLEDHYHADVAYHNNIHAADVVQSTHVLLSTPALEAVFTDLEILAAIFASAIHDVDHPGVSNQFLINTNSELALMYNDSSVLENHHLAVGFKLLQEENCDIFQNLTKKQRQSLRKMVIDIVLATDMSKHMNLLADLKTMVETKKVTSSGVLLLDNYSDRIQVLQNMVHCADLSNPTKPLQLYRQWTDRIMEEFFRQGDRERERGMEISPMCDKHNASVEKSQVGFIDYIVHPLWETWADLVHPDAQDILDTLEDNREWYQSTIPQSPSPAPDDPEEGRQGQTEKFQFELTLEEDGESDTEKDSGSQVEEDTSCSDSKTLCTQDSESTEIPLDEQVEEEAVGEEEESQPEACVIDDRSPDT
Format: biochemical. The conditions noted are these: GST-tagged PDE4D3, 200 nM FAM-cAMP, 11-point dose-response; read-out: PD4d3 pEC50 (converted).
In the case of `COc1ncc(Cn2cc(CO)nc2C)cc1-c1ccc(F)c(F)c1` [Example 345, (1-{[5-(3,4-Difluorophenyl)-6-methoxypyridin-3-yl]methyl}-2-methyl-1H-imidazol-4-yl)methanol], the EC50 was 100 to 1000 nM.
With `CCOc1cnc(Cc2cnc(OC)c(-c3cccc(Cl)c3)c2)cn1` [Example 289, 2-((5-(3-Chlorophenyl)-6-methoxypyridin-3-yl)methyl)-5-ethoxypyrazine], the EC50 is 100 to 1000 nM.
On to `CCOc1ncc(Cc2cnc(N)nc2)cc1-c1ccc(Cl)cc1` [Example 351, 5-{[5-(4-Chlorophenyl)-6-ethoxypyridin-3-yl]methyl}pyrimidin-2-amine], for which the EC50 was 100 to 1000 nM.
The value for `COc1ncc(Cc2cnc(CC(N)=O)nc2)cc1-c1ccc(Cl)c(F)c1` [Example 366, 2-(5-{[5-(4-Chloro-3-fluorophenyl)-6-methoxypyridin-3-yl]methyl}pyrimidin-2-yl)acetamide] was 100 to 1000 nM; that for `CCOc1ncc(Cn2nnc(C)n2)cc1-c1ccc(F)cc1` [Example 392, 2-Ethoxy-3-(4-fluorophenyl)-5-[(5-methyl-2H-1,2,3,4-tetrazol-2-yl)methyl]pyridine] was under 100 nM.
The value for `CCOc1ncc(Cn2cnc(C(N)=O)c2)cc1-c1ccnc(OC(F)F)c1` [Example 311, 1-({5-[2-(Difluoromethoxy)pyridin-4-yl]-6-ethoxypyridin-3-yl}methyl)-1H-imidazole-4-carboxamide] was 100 to 1000 nM; that for `CCOc1ncc(Cn2cc(CO)nc2C)cc1-c1cccc(Cl)c1` [Example 326, (1-{[5-(3-Chlorophenyl)-6-ethoxypyridin-3-yl]methyl}-2-methyl-1H-imidazol-4-yl)methanol] was under 100 nM.
For the compound `CCOc1ncc(Cn2nnnc2C)cc1-c1cccc(OC(F)F)c1` [Example 399, 3-[3-(Difluoromethoxy)phenyl]-2-ethoxy-5-[(5-methyl-1H-1,2,3,4-tetrazol-1-yl)methyl]pyridine], the EC50 was under 100 nM.
For the compound `COc1ncc(Cn2cc(CO)nc2C)cc1-c1ccc(F)cc1` [Example 344, (1-{[5-(4-Fluorophenyl)-6-methoxypyridin-3-yl]methyl}-2-methyl-1H-imidazol-4-yl)methanol], the EC50 is 100 to 1000 nM.
As to `CCOc1ncc(Cn2cnc(CO)n2)cc1-c1ccc(F)c(C)c1` [Example 331, (1-{[6-Ethoxy-5-(4-fluoro-3-methylphenyl)pyridin-3-yl]methyl}-1H-1,2,4-triazol-3-yl)methanol], the EC50 is 100 to 1000 nM.
In the case of `CCOc1ncc(Cn2cc(CO)cn2)cc1-c1cccc(Cl)c1` [Example 273, (1-{[5-(3-Chlorophenyl)-6-ethoxypyridin-3-yl]methyl}-1H-pyrazol-4-yl)methanol], the EC50 is 100 to 1000 nM.
Consider `COc1ncc(Cn2cc(CO)nc2C)cc1-c1ccnc(OC(F)F)c1` [Example 315, [1-({5-[2-(Difluoromethoxy)pyridin-4-yl]-6-methoxypyridin-3-yl}methyl)-2-methyl-1H-imidazol-4-yl]methanol], for which the EC50 was 100 to 1000 nM.
On to `COc1ncc(Cn2cc(CO)nc2C)nc1-c1cccc(Cl)c1` [Example 322, (1-{[6-(3-Chlorophenyl)-5-methoxypyrazin-2-yl]methyl}-2-methyl-1H-imidazol-4-yl)methanol], for which the EC50 was 100 to 1000 nM.
Consider `COc1ncc(Cc2cnc(O)nc2)cc1-c1cccc(Cl)c1` [Example 302, 5-((5-(3-Chlorophenyl)-6-methoxypyridin-3-yl)methyl)pyrimidin-2-ol], for which the EC50 is 1000 to 10000 nM.
In the case of `COc1ncc(Cc2cnc(NCCO)nc2)cc1-c1ccc(F)c(F)c1` [Example 375, 2-[(5-{[5-(3,4-Difluorophenyl)-6-methoxypyridin-3-yl]methyl}pyrimidin-2-yl)amino]ethan-1-ol], the EC50 is under 100 nM.
Turning to `CCOc1ncc(Cn2cnc(C(N)=O)c2)cc1-c1cccc(Cl)c1` [Example 310, 1-{[5-(3-Chlorophenyl)-6-ethoxypyridin-3-yl]methyl}-1H-imidazole-4-carboxamide], the EC50 was 100 to 1000 nM.
For the compound `COc1ncc(Cn2nnnc2CO)cc1-c1ccc(F)cc1` [Example 382, (1-{[5-(4-Fluorophenyl)-6-methoxypyridin-3-yl]methyl}-1H-1,2,3,4-tetrazol-5-yl)methanol], the EC50 was 1000 to 10000 nM.
For the compound `COc1cc(-c2cc(Cn3cc(CO)nc3C)cnc2OC)ccc1F` [Example 343, (1-{[5-(4-Fluoro-3-methoxyphenyl)-6-methoxypyridin-3-yl]methyl}-2-methyl-1H-imidazol-4-yl)methanol], the EC50 is 1000 to 10000 nM.
Regarding `COc1ncc(Cc2cnc(C(N)=O)nc2)cc1-c1ccc(F)c(Cl)c1` [Example 282, 5-{[5-(3-Chloro-4-fluorophenyl)-6-methoxypyridin-3-yl]methyl}pyrimidine-2-carboxamide], the EC50 was 100 to 1000 nM.
`CCOc1ncc(Cn2cnc(CO)n2)cc1-c1cc(F)cc(F)c1` [Example 338, (1-{[5-(3,5-Difluorophenyl)-6-ethoxypyridin-3-yl]methyl}-1H-1,2,4-triazol-3-yl)methanol]: the EC50 was 100 to 1000 nM.
The value for `COc1ncc(Cn2nnnc2CCO)cc1-c1cccc(Cl)c1` [Example 295, 2-(1-((5-(3-Chlorophenyl)-6-methoxypyridin-3-yl)methyl)-1H-tetrazol-5-yl)ethanol] was 1000 to 10000 nM.
The value for `COc1ncc(Cc2cnc(N)nc2)cc1-c1ccc(F)c(F)c1` [Example 362, 5-{[5-(3,4-Difluorophenyl)-6-methoxypyridin-3-yl]methyl}pyrimidin-2-amine] was under 100 nM; that for `COc1cc(-c2cc(Cc3cnc(N)nc3)cnc2OC)ccc1F` [Example 354, 5-{[5-(4-Fluoro-3-methoxyphenyl)-6-methoxypyridin-3-yl]methyl}pyrimidin-2-amine] was 100 to 1000 nM.
As for `COc1ncc(Cc2cnc(CO)nc2)cc1-c1cccc(Cl)c1` [Example 299, (5-((5-(3-Chlorophenyl)-6-methoxypyridin-3-yl)methyl)pyrimidin-2-yl)methanol], the EC50 is under 100 nM.
The value for `CCOc1ncc(Cn2cc(C(F)F)nc2C)nc1-c1cccc(Cl)c1` [Example 403, 3-(3-Chlorophenyl)-5-{[4-(difluoromethyl)-2-methyl-1H-imidazol-1-yl]methyl}-2-ethoxypyrazine] was 100 to 1000 nM; that for `CCOc1ncc(Cn2cnc(CO)n2)cc1-c1cccc(F)c1` [Example 341, (1-{[6-Ethoxy-5-(3-fluorophenyl)pyridin-3-yl]methyl}-1H-1,2,4-triazol-3-yl)methanol] was 100 to 1000 nM; that for `COc1ncc(Cc2cnc(C(C)(C)C#N)nc2)cc1-c1cccc(Cl)c1` [Example 284, 2-(5-((5-(3-Chlorophenyl)-6-methoxypyridin-3-yl)methyl)pyrimidin-2-yl)-2-methylpropanenitrile] was 1000 to 10000 nM.
On to `CCOc1ncc(Cn2cc(CO)nc2C)nc1-c1cccc(Cl)c1` [Example 324, (1-{[6-(3-Chlorophenyl)-5-ethoxypyrazin-2-yl]methyl}-2-methyl-1H-imidazol-4-yl)methanol], for which the EC50 was 100 to 1000 nM.
Turning to `COc1ncc(Cc2cnc(CC(N)=O)nc2)cc1-c1ccc(F)cc1` [Example 281, 2-(5-{[5-(4-Fluorophenyl)-6-methoxypyridin-3-yl]methyl}pyrimidin-2-yl)acetamide], the EC50 is under 100 nM.
As for `CCOc1ncc(Cn2cnc(CO)n2)cc1-c1ccc(F)cc1` [Example 342, (1-{[6-Ethoxy-5-(4-fluorophenyl)pyridin-3-yl]methyl}-1H-1,2,4-triazol-3-yl)methanol], the EC50 is 100 to 1000 nM.
For `COc1ncc(Cc2cnc(N)cn2)cc1-c1cccc(Cl)c1` [Example 287, 5-((5-(3-Chlorophenyl)-6-methoxypyridin-3-yl)methyl)pyrazin-2-amine], the EC50 was under 100 nM.
For the compound `COc1ncc(Cc2cnc(N3CCC(O)C3)nc2)cc1-c1cccc(Cl)c1` (centres unmarked) [Example 389, 1-(5-{[5-(3-Chlorophenyl)-6-methoxypyridin-3-yl]methyl}pyrimidin-2-yl)pyrrolidin-3-ol], the EC50 is 100 to 1000 nM.
`CCOc1ncc(Cn2nnnc2C)cc1-c1ccnc(OC(F)F)c1` [Example 396, 3-[2-(Difluoromethoxy)pyridin-4-yl]-2-ethoxy-5-[(5-methyl-1H-1,2,3,4-tetrazol-1-yl)methyl]pyridine]: the EC50 was under 100 nM.
With `COc1ncc(Cc2cnc(N)c(F)c2)cc1-c1ccnc(OC(F)F)c1` [Example 301, 5-((2′-(Difluoromethoxy)-2-methoxy-[3,4′-bipyridin]-5-yl)methyl)-3-fluoropyridin-2-amine], the EC50 is under 100 nM.
Take `CCOc1ncc(Cc2cnc(N)nc2)cc1-c1ccc(F)c(F)c1` [Example 353, 5-{[5-(3,4-Difluorophenyl)-6-ethoxypyridin-3-yl]methyl}pyrimidin-2-amine]: the EC50 is under 100 nM.
The value for `COc1ncc(Cc2cnc(OCCO)nc2)cc1-c1cccc(Cl)c1` [Example 303, 2-((5-((5-(3-Chlorophenyl)-6-methoxypyridin-3-yl)methyl)pyrimidin-2-yl)oxy)ethanol] was under 100 nM.
Turning to `COc1ncc(Cn2ccc(C(N)=O)n2)cc1-c1ccnc(OC(F)F)c1` [Example 309, 1-({5-[2-(Difluoromethoxy)pyridin-4-yl]-6-methoxypyridin-3-yl}methyl)-1H-pyrazole-3-carboxamide], the EC50 was under 100 nM.
As to `CCOc1ncc(Cn2cnc(CO)n2)cc1-c1ccc(Cl)c(Cl)c1` [Example 330, (1-{[5-(3,4-Dichlorophenyl)-6-ethoxypyridin-3-yl]methyl}-1H-1,2,4-triazol-3-yl)methanol], the EC50 is 100 to 1000 nM.
In the case of `CCOc1ncc(Cc2cnc(N)nc2)cc1-c1ccc(F)c(C)c1` [Example 352, 5-{[6-Ethoxy-5-(4-fluoro-3-methylphenyl)pyridin-3-yl]methyl}pyrimidin-2-amine], the EC50 is under 100 nM.
In the case of `CCOc1ncc(Cc2cnc(N)nc2)nc1-c1ccc(F)c(F)c1` [Example 293, 5-((6-(3,4-difluorophenyl)-5-ethoxypyrazin-2-yl)methyl)pyrimidin-2-amine], the EC50 is under 100 nM.
With `COc1ncc(Cn2nnc(CO)n2)cc1-c1ccc(Cl)c(F)c1` [Example 385, (2-{[5-(4-Chloro-3-fluorophenyl)-6-methoxypyridin-3-yl]methyl}-2H-1,2,3,4-tetrazol-5-yl)methanol] the figure was 100 to 1000 nM.

These data come from patent US11279691B2, “Substituted pyridine and pyrazine compounds as PDE4 inhibitors” (Dart Neuroscience LLC, priority 2013, dated 2022).
